Holding throughout (format): in vivo, Guinea-Pigs
For assay [1], the system named is bronchospasms elicited by intravenous injections of serotonin. Put plainly: bronchodilator activity, Konzett procedure, against serotonin-induced bronchospasm. As to conditions: Cavia porcellus; three logarithmic cumulative intravenous doses; spasmogen serotonin i.v. Here is the method: (§1) The bronchodilator activity for representative compounds of this invention was determined in Guinea-Pigs against bronchospasms elicited by intravenous injections of serotonin, histamine, and acetylcholine, by the Konzett procedure, the details of which are discussed by J. Lulling, P. Lievens, F. El Sayed and J. Prignot, Arzeimittel-Forschung 18, 995 (1968).
(§2) In the table which follows, bronchodilator activity for representative compounds of the invention against spasmogenic agents serotonin, histamine, and acetylcholine is expressed as an ED50 determined from the results obtained with three logarithmic cumulative intravenous doses.

In assay [2] the test system is bronchospasms elicited by intravenous injections of histamine. Put plainly: bronchodilator activity, Konzett procedure, against histamine-induced bronchospasm. The following applies: Cavia porcellus; three logarithmic cumulative intravenous doses; spasmogen histamine i.v. Here is the method:
as §1, §2

Assay [3] concerns bronchospasms elicited by intravenous injections of acetylcholine. Put plainly: bronchodilator activity, Konzett procedure, against acetylcholine-induced bronchospasm. The following applies: Cavia porcellus; three logarithmic cumulative intravenous doses; spasmogen acetylcholine i.v. Here is the method:
as §1, §2

Consider `C=C=CC(O)(C/C=C/[C@H]1[C@H](O)CC(=O)[C@@H]1CCCCCCC(=O)O)CCCC` (relative stereo) [dl 15-deoxy-16-hydroxy-16-allenyl-PGE1, dl-11α,16-dihydroxy-9-oxo-16-allenyl-13-trans prostenoic acid], for which the ED50 in assay [1] turned out to be 1.05 µg/kg; in assay [2], 1 µg/kg; in assay [3], 1.2 µg/kg.
For `C=C=CC(O)(C/C=C/[C@H]1[C@H](O)CC(=O)[C@@H]1C/C=C\CCCC(=O)O)CCCC` (relative stereo) [dl 15-deoxy-16-hydroxy-16-allenyl-PGE2, dl-11α,16-dihydroxy-9-oxo-16-allenyl-5-cis-13-trans prostadienoic acid] the same measures were 1.4 µg/kg, 1 µg/kg and 1.2 µg/kg.

These data come from patent US4322546A, “15-Deoxy-16-hydroxy-16-allenyl prostane derivatives of the E and F series” (American Cyanamid Company, priority 1980, dated 1982).
